Data taken from patent US20210283261A1, “Compositions and Methods for Treating ALK-Mediated Cancer” (ICAHN SCHOOL OF MEDICINE AT MOUNT SINAI, priority 2017, published 2021).

Molecular target: T1, ALK fusion protein (Homo sapiens, UniProt Q9UM73)
T1 construct: endogenous in cells; host or cells: NCI-H3122; the other entry of the earlier key: EML4 (Q9HC35, Echinoderm microtubule-associated protein-like 4)
Assay: Western blot of ALK fusion protein levels in NCI-H3122 cells
Type: cell-based
Conditions: NCI-H3122, NCI-H3122 cells, 500 nM, Western blot; read-out: ALK fusion protein degradation, NCI-H3122 (500 nM)
Procedure: SU-DHL-1, NCI-H3122 and NCI-H2228 cells were cultured in RPMI-1640 medium supplemented with 10% fetal bovine serum, 50 μg/mL penicillin and streptomycin. Cells were cultured in a 37° C. incubator with 5% CO2.
Cells were washed with cold PBS once and lysed in 1× Laemmli loading buffer directly. Lysates were heated at 99° C. for […], and resolved on 4-15% precast SDS-PAGE (BIO-RAD) and transferred onto PVDF membrane. Membrane was blocked in 5% milk in Tris-buffered saline and Tween 20 (TBST) for 1 h at room temperature, followed by incubation with a primary antibody overnight at 4° C., and a horseradish peroxidase (HRP)-conjugated secondary antibody for 1 h at room temperature. The membrane was imaged by a ChemiDoc MP imaging system (BIO-RAD). Antibodies against GAPDH (abeam), Phospho-ALK (Tyr1507), ALK (Cell Signaling Technology), Tubulin (Santa Cruz) were purchased commercially. […]

T1 sequence (Q9UM73 with tags, fused parts or gaps): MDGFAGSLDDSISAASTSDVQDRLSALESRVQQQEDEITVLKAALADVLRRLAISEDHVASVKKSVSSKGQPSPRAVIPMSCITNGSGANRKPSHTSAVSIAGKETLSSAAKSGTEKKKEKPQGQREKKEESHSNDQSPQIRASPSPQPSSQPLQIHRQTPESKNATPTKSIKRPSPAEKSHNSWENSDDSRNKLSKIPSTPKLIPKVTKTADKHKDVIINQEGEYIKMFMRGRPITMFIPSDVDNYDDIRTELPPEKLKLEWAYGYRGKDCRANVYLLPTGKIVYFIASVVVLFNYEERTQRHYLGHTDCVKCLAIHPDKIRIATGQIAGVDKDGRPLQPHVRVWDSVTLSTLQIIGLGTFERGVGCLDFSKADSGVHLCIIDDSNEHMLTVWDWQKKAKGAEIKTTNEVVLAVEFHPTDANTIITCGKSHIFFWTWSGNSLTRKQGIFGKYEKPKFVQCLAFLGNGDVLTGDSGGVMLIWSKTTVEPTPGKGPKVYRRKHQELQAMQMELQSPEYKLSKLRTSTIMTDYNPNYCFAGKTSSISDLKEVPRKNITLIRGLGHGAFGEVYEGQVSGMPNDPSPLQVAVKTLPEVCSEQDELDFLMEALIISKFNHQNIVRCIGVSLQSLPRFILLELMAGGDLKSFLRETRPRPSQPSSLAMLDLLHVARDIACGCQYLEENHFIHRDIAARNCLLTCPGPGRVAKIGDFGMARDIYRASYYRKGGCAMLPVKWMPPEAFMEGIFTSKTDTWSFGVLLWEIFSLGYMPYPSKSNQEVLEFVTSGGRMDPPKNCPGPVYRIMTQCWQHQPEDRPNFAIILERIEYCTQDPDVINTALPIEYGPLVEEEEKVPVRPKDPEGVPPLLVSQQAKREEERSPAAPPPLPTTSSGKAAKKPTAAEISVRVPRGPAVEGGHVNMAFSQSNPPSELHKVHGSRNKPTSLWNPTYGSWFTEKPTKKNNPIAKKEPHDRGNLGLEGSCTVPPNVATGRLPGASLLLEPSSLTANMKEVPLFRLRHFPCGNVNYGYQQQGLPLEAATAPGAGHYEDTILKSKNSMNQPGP

Row | Compound | Dmax at 0.5 µM [%]
1 | Cc1cc(Nc2ncc(Cl)c(Nc3ccccc3S(=O)(=O)C(C)C)n2)c(OC(C)C)cc1C1CCN(C(=O)CCCCCNc2cccc3c2C(=O)N(C2CCC(=O)NC2=O)C3=O)CC1 (stereo not drawn) [CZ47-05, 4-((6-(4-(4-((5-Chloro-4-((2-(isopropylsulfonyl)phenyl)amino)pyrimidin-2-yl)amino)-5-isopropoxy-2-methylphenyl)piperidin-1-yl)-6-oxohexyl)amino)-2-(2,6-dioxopiperidin-3-yl)isoindoline-1,3-dione] | < 20
2 | Cc1cc(Nc2ncc(Cl)c(Nc3ccccc3S(=O)(=O)C(C)C)n2)c(OC(C)C)cc1C1CCN(C(=O)CCOCCOCCOCCOCCOCCC(=O)N[C@H](C(=O)N2C[C@H](O)C[C@H]2C(=O)NCc2ccc(-c3scnc3C)cc2)C(C)(C)C)CC1 [CZ47-21, (2S,4R)-1-((S)-2-(tert-Butyl)-22-(4-(4-((5-chloro-4-((2-(isopropylsulfonyl)phenyl)amino)pyrimidin-2-yl)amino)-5-isopropoxy-2-methylphenyl)piperidin-1-yl)-4,22-dioxo-7,10,13,16,19-pentaoxa-3-azadocosanoyl)-4-hydroxy-N-(4-(4-methylthiazol-5-yl)benzyl)pyrrolidine-2-carboxamide] | < 20
3 | Cc1cc(Nc2ncc(Cl)c(Nc3ccccc3S(=O)(=O)C(C)C)n2)c(OC(C)C)cc1C1CCN(C(=O)CCCNc2cccc3c2C(=O)N(C2CCC(=O)NC2=O)C3=O)CC1 (stereo not drawn) [CZ47-03, 4-((4-(4-(4-((5-Chloro-4-((2-(isopropylsulfonyl)phenyl)amino)pyrimidin-2-yl)amino)-5-isopropoxy-2-methylphenyl)piperidin-1-yl)-4-oxobutyl)amino)-2-(2,6-dioxopiperidin-3-yl)isoindoline-1,3-dione] | 20 to 80
4 | Cc1cc(Nc2ncc(Cl)c(Nc3ccccc3S(=O)(=O)C(C)C)n2)c(OC(C)C)cc1C1CCN(C(=O)COCC(=O)N[C@H](C(=O)N2C[C@H](O)C[C@H]2C(=O)NCc2ccc(-c3scnc3C)cc2)C(C)(C)C)CC1 [CZ47-13, (2S,4R)-1-((S)-2-(2-(2-(4-(4-((5-Chloro-4-((2-(isopropylsulfonyl)phenyl)amino)pyrimidin-2-yl)amino)-5-isopropoxy-2-methylphenyl)piperidin-1-yl)-2-oxoethoxy)acetamido)-3,3-dimethylbutanoyl)-4-hydroxy-N-(4-(4-methylthiazol-5-yl)benzyl)pyrrolidine-2-carboxamide] | 20 to 80
5 | Cc1cc(Nc2ncc(Cl)c(Nc3ccccc3S(=O)(=O)C(C)C)n2)c(OC(C)C)cc1C1CCN(C(=O)CNc2cccc3c2C(=O)N(C2CCC(=O)NC2=O)C3=O)CC1 (stereo not drawn) [CZ47-01, 4-((2-(4-(4-((5-Chloro-4-((2-(isopropylsulfonyl)phenyl)amino)pyrimidin-2-yl)amino)-5-isopropoxy-2-methylphenyl)piperidin-1-yl)-2-oxoethyl)amino)-2-(2,6-dioxopiperidin-3-yl)isoindoline-1,3-dione] | < 20
6 | Cc1cc(Nc2ncc(Cl)c(Nc3ccccc3S(=O)(=O)C(C)C)n2)c(OC(C)C)cc1C1CCN(C(=O)COCCOCCOCC(=O)N[C@H](C(=O)N2C[C@H](O)C[C@H]2C(=O)NCc2ccc(-c3scnc3C)cc2)C(C)(C)C)CC1 [CZ47-17, (2S,4R)-1-((S)-2-(tert-Butyl)-14-(4-(4-((5-chloro-4-((2-(isopropylsulfonyl)phenyl)amino)pyrimidin-2-yl)amino)-5-isopropoxy-2-methylphenyl)piperidin-1-yl)-4,14-dioxo-6,9,12-trioxa-3-azatetradecanoyl)-4-hydroxy-N-(4-(4-methylthiazol-5-yl)benzyl)pyrrolidine-2-carboxamide] | < 20
